Results reported in article PMC6245648 (Chemical research in toxicology, 2016).
Where two headings read alike, the source gives them in different places.

Legend:
Type in all cases: cell-based
[1] = molecular target: T1, mitochondrial complex I (NADH: ubiquinone oxidoreductase) (Rattus norvegicus, UniProt A6K8N6+P03889+Q641Y2); conditions: read-out: % inhibition at 200 μM
[2] = molecular target: T1, mitochondrial complex I (NADH: ubiquinone oxidoreductase); conditions: read-out: % inhibition at 10 μM
[3] = molecular target: T1, mitochondrial complex I (NADH: ubiquinone oxidoreductase); conditions: read-out: % inhibition at 10 μM; remark: listed apart in the source
[4] = molecular target: T1, mitochondrial complex I (NADH: ubiquinone oxidoreductase); conditions: read-out: % inhibition at 10 μM; remark: listed apart in the source
[5] = molecular target: T1, mitochondrial complex I (NADH: ubiquinone oxidoreductase); conditions: read-out: % inhibition at 10 μM; remark: listed apart in the source
[6] = molecular target: T1, mitochondrial complex I (NADH: ubiquinone oxidoreductase); conditions: read-out: % inhibition at 10 μM; remark: listed apart in the source

Which inhibition at 200 µM [1] does the source give for `C[n+]1ccc(-c2ccccc2)cc1` [A, 1-methyl-4-phenylpyridinium] here?
The inhibition at 200 µM was 12.5%.

For `CCN1C(=Cc2ccc3ccccc3[n+]2CC)C=Cc2ccccc21` [B, 2,2’-cyanine], which inhibition at 10 µM [2] is on record?
Its inhibition at 10 µM is 70.8%.

For `CCN1C=CC(=Cc2cc[n+](CC)c3ccccc23)c2ccccc21` [C, 4,4’-cyanine], which inhibition at 10 µM [3] is on record?
Its inhibition at 10 µM is 60.8%.

With `CCN1C(=CC=Cc2oc3ccccc3[n+]2CC)Oc2ccccc21` [D, DiOC2(3)] as the compound, how does the inhibition at 10 µM [4] read?
The inhibition at 10 µM was 79%.

How did the inhibition at 10 µM [5] turn out when `CCCN1C(=CC=Cc2sc3ccccc3[n+]2CCC)Sc2ccccc21` [E, DiSC3(3)] was run?
Its inhibition at 10 µM is 83%.

`CCCN1C(=CC=CC=Cc2sc3ccccc3[n+]2CCC)Sc2ccccc21` [F, DiSC3(5)] was tested. Which inhibition at 10 µM [5] did it give?
The inhibition at 10 µM was 83%.

`C=C(C)[C@H]1Cc2c(ccc3c2O[C@@H]2COc4cc(OC)c(OC)cc4[C@@H]2C3=O)O1` [H, rotenone] was tested. Which inhibition at 10 µM [6] did it give?
Its inhibition at 10 µM is 88%.
